The results in this text go back to ChEMBL document CHEMBL1127960, “Latent leishmanicidal activity of quinazolinones and 1,2,4-triazoloquinazolinones” (1994).

Each structure is given as a SMILES string.

The assay deals with Leishmania donovani. Kind of assay: In vitro leishmanicidal activity against promastigotes of Leishmania donovani at 100 ug/ml concentration. The format is functional.
On to `CCn1c(=O)c2cc(OC)ccc2n2c(CCl)nnc12`, for which the “Leishmanicidal activity (% promastigotes killed)” value is 67%. As for `Cn1c(=O)c2ccc(Cl)cc2n2c(CSC3=NCCN3)nnc12`, the figure is 35%; as for `Cn1c(=O)c2ccc(Cl)cc2n2c(CCl)nnc12`, 95%; as for `Cn1c(=O)c2ccc(Cl)cc2n2c(S)nnc12`, 55%. With `CCn1c(=O)c2cc(OC)ccc2n2cnnc12`, the “Leishmanicidal activity (% promastigotes killed)” value was 39%. As for `CCn1c(=O)c2ccc(Cl)cc2n2c(C)nnc12`, the figure is 49%; as for `CCOC(=O)c1c(SC)nn(-c2nc3cc(Cl)ccc3c(=O)n2C)c1N`, 0%. As for `CCn1c(=O)c2ccc(Cl)cc2n2c(CCl)nnc12`, the figure is 70%; as for `CCOC(=O)c1c(SC)nn(-c2nc3cc(Cl)ccc3c(=O)n2CC)c1N`, 0%; as for `Cn1c(=O)c2ccc(Cl)cc2n2cnnc12`, 81%. As to `CCn1c(=O)c2cc(OC)ccc2n2c(S)nnc12`, the “Leishmanicidal activity (% promastigotes killed)” value amounted to 80%. In the case of `CCn1c(=O)c2ccc(Cl)cc2n2c(CSC3=NCCN3)nnc12`, the “Leishmanicidal activity (% promastigotes killed)” value was 24%. In the case of `CCn1c(=S)[nH]c2ccc(OC)cc2c1=O` it was 12%; in that of `CCn1c(SCc2nnc3n(CC)c(=O)c4ccc(Cl)cc4n23)nc2ccc(OC)cc2c1=O`, 0%; in that of `CSc1nc2cc(Cl)ccc2c(=O)n1C`, 0%.

On to `CCn1c(=O)c2ccc(Cl)cc2n2cnnc12`, for which the “Leishmanicidal activity (% promastigotes killed)” value was 19%. In the case of `CCn1c(=O)c2cc(OC)ccc2n2c(C)nnc12` it was 42%.

`CCn1c(SCc2nnc3n(C)c(=O)c4ccc(Cl)cc4n23)nc2ccc(OC)cc2c1=O`: the “Leishmanicidal activity (% promastigotes killed)” value was 10%. As for `CCn1c(=O)c2ccc(Cl)cc2n2c(S)nnc12`, the figure is 30%; as for `CCn1c(NN)nc2ccc(OC)cc2c1=O`, 0%.
